Test results from ChEMBL document CHEMBL1156422 (J Biol Chem, 2007).
Activity calls are given as the source filed them. No cut-off for these calls is given here.

Tests used:
[1] = biological target: T1, Serine/threonine-protein kinase PLK3 (Homo sapiens, UniProt Q9H4B4); assay: Inhibition of AX-7503 binding to recombinant Plk3 expressed in HeLa cells by Western blot; format: cell-based
Target sequence in this assay (Q9H4B4 whole entry): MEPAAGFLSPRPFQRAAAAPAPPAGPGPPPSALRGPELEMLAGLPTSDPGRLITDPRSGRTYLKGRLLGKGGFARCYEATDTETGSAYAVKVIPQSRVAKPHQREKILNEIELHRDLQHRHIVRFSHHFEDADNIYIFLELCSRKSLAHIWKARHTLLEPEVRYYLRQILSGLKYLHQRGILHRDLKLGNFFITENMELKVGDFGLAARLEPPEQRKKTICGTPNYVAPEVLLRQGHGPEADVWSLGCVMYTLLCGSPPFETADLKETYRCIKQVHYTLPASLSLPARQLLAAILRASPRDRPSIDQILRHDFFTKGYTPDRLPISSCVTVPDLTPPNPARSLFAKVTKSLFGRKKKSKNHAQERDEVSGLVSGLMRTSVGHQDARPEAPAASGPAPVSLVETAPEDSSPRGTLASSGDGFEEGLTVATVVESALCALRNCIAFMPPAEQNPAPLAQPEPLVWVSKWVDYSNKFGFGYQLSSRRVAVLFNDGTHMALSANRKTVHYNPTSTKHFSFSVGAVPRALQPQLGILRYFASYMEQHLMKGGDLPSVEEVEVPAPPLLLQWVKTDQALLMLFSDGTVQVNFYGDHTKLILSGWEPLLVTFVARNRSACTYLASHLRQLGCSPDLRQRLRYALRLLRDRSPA

[2] = biological target: T1, Serine/threonine-protein kinase PLK3; assay: Inhibition of recombinant Plk3 assessed as casein substrate phosphorylation
Target sequence in this assay (Q9H4B4 whole entry): as above

[3] = biological target: Serine/threonine-protein kinase PLK1 (Homo sapiens, UniProt P53350); assay: Inhibition of AX-7503 binding to recombinant Plk1 by Western blot
Chain of Serine/threonine-protein kinase PLK1 (P53350 whole entry): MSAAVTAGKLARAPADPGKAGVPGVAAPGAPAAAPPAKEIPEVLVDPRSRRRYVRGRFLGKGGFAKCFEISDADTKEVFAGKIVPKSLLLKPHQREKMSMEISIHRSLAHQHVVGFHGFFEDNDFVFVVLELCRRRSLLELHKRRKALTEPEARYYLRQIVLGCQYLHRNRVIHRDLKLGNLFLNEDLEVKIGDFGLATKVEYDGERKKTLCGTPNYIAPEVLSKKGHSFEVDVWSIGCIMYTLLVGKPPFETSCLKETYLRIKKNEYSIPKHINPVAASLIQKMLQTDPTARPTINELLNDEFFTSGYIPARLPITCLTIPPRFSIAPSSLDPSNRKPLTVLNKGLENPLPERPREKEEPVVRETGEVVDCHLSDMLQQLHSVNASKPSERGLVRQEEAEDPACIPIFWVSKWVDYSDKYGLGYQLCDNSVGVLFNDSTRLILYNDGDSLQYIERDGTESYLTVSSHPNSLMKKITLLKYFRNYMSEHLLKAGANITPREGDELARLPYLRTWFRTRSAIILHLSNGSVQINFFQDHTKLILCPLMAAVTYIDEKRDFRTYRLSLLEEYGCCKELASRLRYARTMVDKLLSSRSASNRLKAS

[4] = biological target: T1, Serine/threonine-protein kinase PLK3; assay: Inhibition of Plk3 in human A549 cells assessed as casein substrate phosphorylation by Western blot; format: cell-based
Target sequence in this assay (Q9H4B4 whole entry): as the sequence (Q9H4B4 whole entry) above

[5] = biological target: Serine/threonine-protein kinase PLK2 (Homo sapiens) (UniProt Q9NYY3); assay: Inhibition of AX-7503 binding to recombinant Plk2 at 1 uM by Western blot
Chain of Serine/threonine-protein kinase PLK2 (Homo sapiens) (Q9NYY3 whole entry, looked up): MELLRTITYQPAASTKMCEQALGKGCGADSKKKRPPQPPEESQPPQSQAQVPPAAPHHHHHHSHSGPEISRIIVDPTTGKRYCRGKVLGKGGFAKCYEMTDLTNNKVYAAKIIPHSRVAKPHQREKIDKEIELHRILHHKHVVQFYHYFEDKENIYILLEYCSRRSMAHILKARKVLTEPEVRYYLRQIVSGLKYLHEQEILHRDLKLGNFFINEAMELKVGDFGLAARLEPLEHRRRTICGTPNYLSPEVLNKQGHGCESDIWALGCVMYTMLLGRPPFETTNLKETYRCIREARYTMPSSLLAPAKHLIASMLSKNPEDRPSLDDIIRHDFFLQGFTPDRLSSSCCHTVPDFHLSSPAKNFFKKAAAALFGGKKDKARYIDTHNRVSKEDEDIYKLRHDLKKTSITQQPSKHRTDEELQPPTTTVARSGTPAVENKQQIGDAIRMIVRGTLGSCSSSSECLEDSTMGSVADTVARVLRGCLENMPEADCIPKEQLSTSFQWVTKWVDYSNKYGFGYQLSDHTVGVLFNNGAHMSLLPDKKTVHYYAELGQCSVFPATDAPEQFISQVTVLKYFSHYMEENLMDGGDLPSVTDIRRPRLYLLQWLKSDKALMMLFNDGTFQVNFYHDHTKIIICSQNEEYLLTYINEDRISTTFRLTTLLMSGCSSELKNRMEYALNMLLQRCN

[6] = biological target: T1, Serine/threonine-protein kinase PLK3; assay: Inhibition of recombinant Plk3 expressed in human GM00637 cells at 1 uM assessed as decrease in p53 serine-20 phosphorylation; format: cell-based
Target sequence in this assay (Q9H4B4 whole entry, looked up): as the sequence (Q9H4B4 whole entry) above

[7] = biological target: T1, Serine/threonine-protein kinase PLK3; assay: Inhibition of recombinant Plk3 expressed in human GM00637 cells at 1 uM; format: cell-based
Target sequence in this assay (Q9H4B4 whole entry, looked up): as the sequence (Q9H4B4 whole entry) above

O=c1cc(N2CCOCC2)oc2c(-c3ccccc3)cccc12 [LY-294002]
IC50 [1]: 3 µM
IC50 [2]: 88 µM
IC50 [3]: 2.1 µM

COC[C@H]1OC(=O)c2coc3c2[C@@]1(C)C1=C(C3=O)[C@@H]2CCC(=O)[C@@]2(C)C[C@H]1OC(C)=O [WORTMANNIN]
IC50 [4]: 0.22 µM
Activity [5]: Active
Activity [6]: Active
IC50 [1]: 0.049 µM
IC50 [2]: 0.048 µM
inhibition [7]: 75%
